Assay results reported in US4086221A, “Polypeptides and process for producing the same” (Toyo Jozo Kabushiki Kaisha, priority 1975, dated 1978).
Where a SMILES comes first, the peptide text is derived from it. Bridges are numbered along the chain shown (N, C = ends). [ ]: non-standard residue; d: D form. Asu = N[C@@H](CCCCCC(=O)O)C(=O)O

Tested on: Male rats
Assay: Assay method for serum calcium reducing activity (potency against Research Standard B)
Format: in vivo, rat
Settings: intravenous injection 0.2 ml, serum calcium 1 hour after injection, versus Research Standard B
Experimental: The assay method for serum calcium reducing activity, the carrier and developing system for thin layer chromatography and conditions for amino acid analysis are as follows:
Sample is diluted adequately with 0.1 N sodium acetate - 0.1% albumin solution. Male rats are subjected individually to intravenous injection with 0.2 ml. of the respective diluted solutions. After 1 hour, all the rats are killed to obtain their respective blood, and serum calcium value of each blood sample is determined by atomic absorption spectrophotomery. On the other hand, Research Standard B, which is an extract obtained from the thyroid gland of the hog, is diluted so as to give dilutions of 2.5, 5, 10 and 20 MRC mU/0.2 ml. respectively. Male rats are subjected to intravenous injection with 0.2 ml. of the respective diluted solutions. Following the same procedure as above, the serum calcium value of the rats is determined one hour after injection. From the potency of the corresponding Research Standard, the potency of the calcitonin in the sample is determined.

CC(C)C[C@H](NC(=O)[C@H](CCCCN)NC(=O)CNC(=O)[C@H](CC(C)C)NC(=O)[C@@H](NC(=O)[C@@H]1CCCCCC(=O)N[C@@H](CO)C(=O)N[C@@H](CC(N)=O)C(=O)N[C@@H](CC(C)C)C(=O)N[C@@H](CO)C(=O)N[C@@H]([C@@H](C)O)C(=O)N1)C(C)C)C(=O)N[C@@H](CO)C(=O)N[C@@H](CCC(N)=O)C(=O)N[C@@H](CCC(=O)O)C(=O)N[C@@H](CC(C)C)C(=O)N[C@@H](Cc1c[nH]cn1)C(=O)N[C@@H](CCCCN)C(=O)N[C@@H](CC(C)C)C(=O)N[C@@H](CCC(N)=O)C(=O)N[C@H](C(=O)N[C@@H](Cc1ccc(O)cc1)C(=O)N1CCC[C@H]1C(=O)N[C@@H](CCCNC(=N)N)C(=O)N[C@H](C(=O)N[C@@H](CC(=O)O)C(=O)N[C@H](C(=O)NCC(=O)N[C@@H](C)C(=O)NCC(=O)N[C@H](C(=O)N1CCC[C@H]1C(N)=O)[C@@H](C)O)C(C)C)[C@@H](C)O)[C@@H](C)O [Example 1] (SNLST[Asu]VLGKLSQELHKLQTYPRTDVGAGTP-NH2; lactam N-6)
potency of the purified product (serum calcium reducing activity): 3450 MRC U/mg.
